The assay concerns the target recombinant DYRK1A kinase (Homo sapiens (Human), UniProt Q13627). Kind of assay: DYRK1A kinase assay (Ser/Thr 18 peptide Z-lyte FRET assay). The following applies: DYRK1A kinase activity; 15 μM ATP, 1 h room temperature; method text calls the value IC50. Format: biochemical. In outline:
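Recombinant human DYRK1A (0.25 μg/mL) with 15 μM ATP and 4 μM Ser/Thr 18 peptide, 1 h at room temperature with compound (11-point, 1:3, 10 μM top, duplicate). Z-lyte development 1 h, then coumarin/fluorescein FRET emission ratio converted to % phosphorylation; IC50 by non-linear regression.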
What is called EC50 is the concentration giving half of the maximal effect. Turning to `Cc1nc2cc(F)c(-c3c[nH]c4nc(C5CC5)ncc34)cc2n1C(C)C` [Compound 539, 2-Cyclopropyl-5-(5-fluoro-1-isopropyl-2-methyl-1H-benzo[d]imidazol-6-yl)-7H-pyrrolo[2,3-d]pyrimidine], the EC50 was 40.8 nM.
With `Cc1nc2ccc(-c3c[nH]c4nc(C5CC5)ncc34)c(F)c2n1C(C)C` [Compound 540, 2-Cyclopropyl-5-(7-fluoro-1-isopropyl-2-methyl-1H-benzo[d]imidazol-6-yl)-7H-pyrrolo[2,3-d]pyrimidine], the EC50 stood at 25.5 nM.
As for `Cc1nc2ncc(-c3c[nH]c4nc(CC(C)C)ncc34)cc2n1C(C)C` [Compound 585, 6-(2-Isobutyl-7H-pyrrolo[2,3-d]pyrimidin-5-yl)-1-isopropyl-2-methyl-1H-imidazo[4,5-b]pyridine], the EC50 was 17.9 nM.
As to `Cc1nc2ncc(-c3c[nH]c4nc(NCC(C)C)ncc34)cc2n1C(C)C` [Compound 594, N-Isobutyl-5-(1-isopropyl-2-methyl-1H-imidazo[4,5-b]pyridin-6-yl)-7H-pyrrolo[2,3-d]pyrimidin-2-amine], the EC50 is 5.6 nM.
As for `Cc1nc2cnc(-c3c[nH]c4ncncc34)cc2n1C(C)C` [Compound 627, 1-Isopropyl-2-methyl-6-(7H-pyrrolo[2,3-d]pyrimidin-5-yl)-1H-imidazo[4,5-c]pyridine], the figure is 71.3 nM; as for `Cc1nc2cnc(-c3c[nH]c4nc(C5CCC5)ncc34)cc2n1C(C)C` [Compound 628, 6-(2-Cyclobutyl-7H-pyrrolo[2,3-d]pyrimidin-5-yl)-1-isopropyl-2-methyl-1H-imidazo[4,5-c]pyridine], 789 nM.
Take `Cc1nc2ccc(-c3c[nH]c4nc(NCC(C)(C)F)ncc34)nc2n1CC(F)F` [Compound 643, 5-(3-(2,2-Difluoroethyl)-2-methyl-3H-imidazo[4,5-b]pyridin-5-yl)-N-(2-fluoro-2-methylpropyl)-7H-pyrrolo[2,3-d]pyrimidin-2-amine]: the EC50 stood at 42.8 nM.
As for `Cc1nc2ccc(-c3c[nH]c4nc(C5CC5)ncc34)nc2n1C(C)C` [Compound 676, 5-(2-Cyclopropyl-7H-pyrrolo[2,3-d]pyrimidin-5-yl)-3-isopropyl-2-methyl-3H-imidazo[4,5-b]pyridine], the figure is 1.5 nM.
With `CC(C)(C)Nc1ncc2c(-c3ccc4ncnn4c3)c[nH]c2n1` [Compound 718, 5-([1,2,4]Triazolo[1,5-a]pyridin-6-yl)-N-(tert-butyl)-7H-pyrrolo[2,3-d]pyrimidin-2-amine] the figure was 415 nM.
With `c1nc2ccc(-c3c[nH]c4nc(C5CC5)ncc34)cn2n1` [Compound 720, 6-(2-Cyclopropyl-7H-pyrrolo[2,3-d]pyrimidin-5-yl)-[1,2,4]triazolo[1,5-a]pyridine] the figure was 200 nM; with `c1nc2ccc(-c3c[nH]c4nc(C5CCC5)ncc34)cn2n1` [Compound 721, 6-(2-Cyclobutyl-7H-pyrrolo[2,3-d]pyrimidin-5-yl)-[1,2,4]triazolo[1,5-a]pyridine], 852 nM; with `CC(C)(C)CNc1ncc2c(-c3ccc4ncnn4c3)c[nH]c2n1` [Compound 728, 5-([1,2,4]Triazolo[1,5-a]pyridin-6-yl)-N-neopentyl-7H-pyrrolo[2,3-d]pyrimidin-2-amine], 48.1 nM.
Regarding `FC(F)(F)CNc1ncc2c(-c3ccc4ncnn4c3)c[nH]c2n1` [Compound 733, 5-([1,2,4]Triazolo[1,5-a]pyridin-6-yl)-N-(2,2,2-trifluoroethyl)-7H-pyrrolo [2,3-d]pyrimidin-2-amine], the EC50 stood at 23 nM.
In the case of `C[C@H](Nc1ncc2c(-c3ccc4ncnn4c3)c[nH]c2n1)C(F)(F)F` [Compound 735, (S)-5-([1,2,4]Triazolo[1,5-a]pyridin-6-yl)-N-(1,1,1-trifluoropropan-2-yl)-7H-pyrrolo[2,3-d]pyrimidin-2-amine], the EC50 is 78.7 nM.
Regarding `FC(F)(F)CCNc1ncc2c(-c3ccc4ncnn4c3)c[nH]c2n1` [Compound 736, 5-([1,2,4]Triazolo[1,5-a]pyridin-6-yl)-N-(3,3,3-trifluoropropyl)-7H-pyrrolo [2,3-d]pyrimidin-2-amine], the EC50 is 45.8 nM.
With `FC(F)(CNc1ncc2c(-c3ccc4ncnn4c3)c[nH]c2n1)C1CC1` [Compound 743, 5-([1,2,4]Triazolo[1,5-a]pyridin-6-yl)-N-(2-cyclopropyl-2,2-difluoroethyl)-7H-pyrrolo[2,3-d]pyrimidin-2-amine], the EC50 came to 1.9 nM.
Consider `CN1CCN(c2cc(Nc3ncc4c(-c5ccc6ncnn6c5)c[nH]c4n3)ccn2)CC1` [Compound 755, 5-([1,2,4]Triazolo[1,5-a]pyridin-6-yl)-N-(2-(4-methylpiperazin-1-yl)pyridin-4-yl)-7H-pyrrolo[2,3-d]pyrimidin-2-amine], for which the EC50 amounted to 4.5 nM.
As for `CC(C)(F)CNc1ncc2c(-c3cc(F)c4ncnn4c3)c[nH]c2n1` [Compound 774, N-(2-Fluoro-2-methylpropyl)-5-(8-fluoro-[1,2,4]triazolo[1,5-a]pyridin-6-yl)-7H-pyrrolo[2,3-d]pyrimidin-2-amine], the EC50 amounted to 76.3 nM.
In the case of `CC(C)Nc1ncc2c(-c3ccn4ncnc4c3)c[nH]c2n1` [Compound 804, 5-([1,2,4]Triazolo[1,5-a]pyridin-7-yl)-N-isopropyl-7H-pyrrolo[2,3-d]pyrimidin-2-amine], the EC50 amounted to 72.1 nM.
As for `C[C@@H](Nc1ncc2c(-c3ccn4ncnc4c3)c[nH]c2n1)C(F)(F)F` [Compound 806, (R)-5-([1,2,4]Triazolo[1,5-a]pyridin-7-yl)-N-(1,1,1-trifluoropropan-2-yl)-7H-pyrrolo[2,3-d]pyrimidin-2-amine], the figure is 18.8 nM; as for `C[C@H](Nc1ncc2c(-c3ccn4ncnc4c3)c[nH]c2n1)C(F)(F)F` [Compound 807, (S)-5-([1,2,4]Triazolo[1,5-a]pyridin-7-yl)-N-(1,1,1-trifluoropropan-2-yl)-7H-pyrrolo[2,3-d]pyrimidin-2-amine], 165 nM; as for `CN1CCN(c2ccc(CNc3ncc4c(-c5ccn6ncnc6c5)c[nH]c4n3)cn2)CC1` [Compound 808, 5-([1,2,4]Triazolo[1,5-a]pyridin-7-yl)-N-((6-(4-methylpiperazin-1-yl)pyridin-3-yl)methyl)-7H-pyrrolo[2,3-d]pyrimidin-2-amine], 52.3 nM.
As for `CC(C)Cc1ncc2c(-c3ccc4nnn(C)c4c3)c[nH]c2n1` [Compound 810, 6-(2-Isobutyl-7H-pyrrolo[2,3-d]pyrimidin-5-yl)-1-methyl-1H-benzo[d][1,2,3]triazole], the figure is 66 nM; as for `Cn1nnc2ccc(-c3c[nH]c4nc(CCC(F)(F)F)ncc34)cc21` [Compound 811, 1-Methyl-6-(2-(3,3,3-trifluoropropyl)-7H-pyrrolo[2,3-d]pyrimidin-5-yl)-1H-benzo[d][1,2,3]triazole], 33.3 nM; as for `Cn1nnc2ccc(-c3c[nH]c4nc(NCC(C)(C)F)ncc34)cc21` [Compound 822, N-(2-Fluoro-2-methylpropyl)-5-(1-methyl-1H-benzo[d][1,2,3]triazol-6-yl)-7H-pyrrolo[2,3-d]pyrimidin-2-amine], 2.9 nM.
Consider `Cn1nnc2ccc(-c3c[nH]c4nc(NCC(C)(F)F)ncc34)cc21` [Compound 823, N-(2,2-Difluoropropyl)-5-(1-methyl-1H-benzo[d][1,2,3]triazol-6-yl)-7H-pyrrolo[2,3-d]pyrimidin-2-amine], for which the EC50 came to 6 nM.
With `Cn1nnc2ccc(-c3c[nH]c4nc(NCC(F)(F)F)ncc34)cc21` [Compound 824, 5-(1-Methyl-1H-benzo[d][1,2,3]triazol-6-yl)-N-(2,2,2-trifluoroethyl)-7H-pyrrolo[2,3-d]pyrimidin-2-amine] the figure was 3.4 nM; with `C[C@@H](Nc1ncc2c(-c3ccc4nnn(C)c4c3)c[nH]c2n1)C(F)(F)F` [Compound 825, (R)-5-(1-Methyl-1H-benzo[d][1,2,3]triazol-6-yl)-N-(1,1,1-trifluoropropan-2-yl)-7H-pyrrolo[2,3-d]pyrimidin-2-amine], 4.8 nM.
With `C[C@H](Nc1ncc2c(-c3ccc4nnn(C)c4c3)c[nH]c2n1)C(F)(F)F` [Compound 826, (S)-5-(1-Methyl-1H-benzo[d][1,2,3]triazol-6-yl)-N-(1,1,1-trifluoropropan-2-yl)-7H-pyrrolo[2,3-d]pyrimidin-2-amine] the figure was 43 nM.
In the case of `CN1CCC(Nc2ncc3c(-c4ccc5nnn(C)c5c4)c[nH]c3n2)CC1` [Compound 841, 5-(1-Methyl-1H-benzo[d][1,2,3]triazol-6-yl)-N-(1-methylpiperidin-4-yl)-7H-pyrrolo[2,3-d]pyrimidin-2-amine], the EC50 came to 13.6 nM.
With `Cn1nnc2ccc(-c3c[nH]c4nc(NC5CCOCC5)ncc34)cc21` [Compound 843, 5-(1-Methyl-1H-benzo[d][1,2,3]triazol-6-yl)-N-(tetrahydro-2H-pyran-4-yl)-7H-pyrrolo[2,3-d]pyrimidin-2-amine], the 50% effective concentration (EC50) was 23.2 nM.
As for `CCn1nnc2ccc(-c3c[nH]c4nc(NCC(C)(C)F)ncc34)cc21` [Compound 865, 5-(1-Ethyl-1H-benzo[d][1,2,3]triazol-6-yl)-N-(2-fluoro-2-methylpropyl)-7H-pyrrolo[2,3-d]pyrimidin-2-amine], the figure is 7.3 nM.
For `Cc1nnc2ccc(-c3c[nH]c4nc(NCC(C)(C)F)ncc34)cn12` [Compound 895, N-(2-Fluoro-2-methylpropyl)-5-(3-methyl-[1,2,4]triazolo[4,3-a]pyridin-6-yl)-7H-pyrrolo[2,3-d]pyrimidin-2-amine], the EC50 came out at 83.2 nM.
With `CC(C)Cc1ncc2c(-c3ccc4nccn4n3)c[nH]c2n1` [Compound 897, 5-(Imidazo[1,2-b]pyridazin-6-yl)-2-isobutyl-7H-pyrrolo[2,3-d]pyrimidine], the EC50 was determined as 66.8 nM.
For `CC(C)(C)CNc1ncc2c(-c3ccc4nccn4n3)c[nH]c2n1` [Compound 907, 5-(Imidazo[1,2-b]pyridazin-6-yl)-N-neopentyl-7H-pyrrolo[2,3-d]pyrimidin-2-amine], the EC50 was 8.8 nM.

The values above are taken from patent US20250129104A1, “7H-PYRROLO[2,3-D]PYRIMIDINES AND PREPARATION AND USES THEREOF” (BioSplice Therapeutics, Inc., priority 2021, published 2025).
